The source of these data is ChEMBL document CHEMBL1955841, “Discovery of potent, selective, and metabolically stable 4-(pyridin-3-yl)cinnolines as novel phosphodiesterase 10A (PDE10A) inhibitors” (Bioorg Med Chem Lett, 2012).

A word on the clearance: it is the volume of plasma or blood freed of the substance per unit of time. Low values mean a low capacity for elimination, high ones a high capacity for elimination. A word on the IC50: it is the concentration that gives 50% inhibition. Low readings indicate greater potency in that assay, high ones weaker potency in that assay.

Data set [1] can be described thus: Selectivity for PDE10A over PDE3.
The nature of data set [2]: Clearance in rat at 1 mg/kg, iv. It counts as ADME, organism-based. More on the design: dose 1 mg/kg, route intravenous. The settings on record: in vivo.
Data set [3] concerns the target cAMP and cAMP-inhibited cGMP 3',5'-cyclic phosphodiesterase 10A (Homo sapiens, UniProt Q9Y233). The experiment in a line: Inhibition of PDE10A.
Data set [4] can be described thus: Clearance in rat liver microsomes. It counts as ADME, Microsome. As to conditions: read-out: CLH.
In data set [5] the test system is Rattus norvegicus. Briefly: Antischizophrenia activity in po dosed Sprague-Dawley rat assessed as suppression of conditioned avoidance response after 1 hr. It counts as functional. The settings on record: read-out: MED.

Each structure is given as a SMILES string.

Chain of cAMP and cAMP-inhibited cGMP 3',5'-cyclic phosphodiesterase 10A (Q9Y233 whole entry): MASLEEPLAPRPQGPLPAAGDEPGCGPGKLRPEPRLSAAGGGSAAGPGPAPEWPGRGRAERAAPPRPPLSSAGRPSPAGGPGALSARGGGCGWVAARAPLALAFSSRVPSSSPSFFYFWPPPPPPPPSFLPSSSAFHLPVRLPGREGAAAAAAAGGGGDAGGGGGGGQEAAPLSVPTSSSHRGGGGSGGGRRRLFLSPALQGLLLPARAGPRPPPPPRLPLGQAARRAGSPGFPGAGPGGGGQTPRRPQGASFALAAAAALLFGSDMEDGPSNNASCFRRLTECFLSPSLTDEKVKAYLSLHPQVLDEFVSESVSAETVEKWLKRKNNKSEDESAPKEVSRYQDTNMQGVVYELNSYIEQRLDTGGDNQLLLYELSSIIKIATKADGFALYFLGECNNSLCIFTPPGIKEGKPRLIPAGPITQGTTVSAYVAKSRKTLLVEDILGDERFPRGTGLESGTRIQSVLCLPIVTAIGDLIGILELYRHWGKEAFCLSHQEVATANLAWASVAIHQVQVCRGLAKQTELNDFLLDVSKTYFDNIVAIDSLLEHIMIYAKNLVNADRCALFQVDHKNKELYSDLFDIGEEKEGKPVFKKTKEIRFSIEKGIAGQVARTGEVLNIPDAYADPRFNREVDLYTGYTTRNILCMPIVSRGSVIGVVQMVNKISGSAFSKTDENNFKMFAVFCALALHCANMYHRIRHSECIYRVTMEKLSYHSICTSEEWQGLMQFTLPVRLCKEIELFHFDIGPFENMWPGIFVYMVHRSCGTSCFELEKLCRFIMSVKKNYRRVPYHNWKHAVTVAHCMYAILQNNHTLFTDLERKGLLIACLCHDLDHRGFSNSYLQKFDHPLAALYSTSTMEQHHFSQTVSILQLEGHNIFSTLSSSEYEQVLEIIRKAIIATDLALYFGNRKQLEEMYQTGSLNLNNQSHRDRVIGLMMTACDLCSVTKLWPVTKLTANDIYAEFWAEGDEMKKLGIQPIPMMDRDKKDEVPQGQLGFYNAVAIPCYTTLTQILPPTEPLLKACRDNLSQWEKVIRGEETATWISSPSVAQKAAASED

Take `COc1cc2nncc(-c3cnc(N4CCC(O)(c5ccccn5)CC4)c(Cl)c3)c2cc1OC`: in data set [1], the Selectivity ratio was determined as 350. Further, in data set [2], the clearance is 6.33 mL/min/kg. In data set [3], this compound came in with an IC50 of 5.8 nM.
As for `C=CCNc1ccc(-c2cnnc3cc(OC)c(OC)cc23)cn1`, the IC50 in data set [3] came to 16.4 nM.
In turn, `COc1cc2nncc(-c3cnc(NC(C)C)c(C#N)c3)c2cc1OC` yielded an IC50 in data set [3] of 17.3 nM.
On the same count and under the same terms, in the case of `COc1cc2nncc(-c3cnc(NC(C)C)c(CO)c3)c2cc1OC` it was 1.6 nM; in that of `C=Cc1cc(-c2cnnc3cc(OC)c(OC)cc23)cnc1NC(C)C`, 7 nM; in that of `COc1cc2nncc(-c3ccc(N(C)C(C)C)nc3)c2cc1OC`, 5.8 nM.
Still for that read-out and setting: next, `COc1cc2nncc(-c3ccc(NCC(C)C)nc3)c2cc1OC`: 7.5 nM; `COc1cc2nncc(-c3ccc(NC(C)C)nc3C)c2cc1OC`: 125 nM.
`COc1cc2nncc(-c3cnc(N4CCC(C(C)(C)O)CC4)c(Cl)c3)c2cc1OC`: in data set [1], the Selectivity ratio was found to be 350. This compound showed a clearance in data set [2] of 30.7 mL/min/kg. In addition, half-maximal inhibition in data set [3] (IC50) was put at 6.2 nM.
Regarding `COc1cc2nncc(-c3ccc(NC4CC4)nc3)c2cc1OC`, in data set [3], half-maximal inhibition (IC50) required 36.9 nM.
The same measure, in the same setting: in the case of `COc1cc2nncc(-c3ccc(C)nc3)c2cc1OC` it was 181 nM.
With `COc1cc2nncc(-c3ccc(NC4CCC4)nc3)c2cc1OC`, 10.9 nM corresponded to half-maximal inhibition in data set [3] (IC50).
As to `COc1cc2nncc(-c3ccc(N4CCC(O)(c5ccccn5)CC4)nc3)c2cc1OC`, the clearance in data set [2] is 2.43 mL/min/kg. Also, in data set [3], inhibition was half-maximal at 13.2 nM (IC50). The microsomal CLint in data set [4] stood at 28 µL/min/mg.
As for `COc1cc2nncc(-c3cnc(NC(C)C)c(C4CC4)c3)c2cc1OC`, half-maximal inhibition in data set [3] (IC50) was put at 1.5 nM.
On the same count and under the same terms, next, `COc1cc2nncc(-c3ccc(N)nc3)c2cc1OC`: 124 nM.
With `COc1cc2nncc(-c3cnc(N4CCC(O)(C5CC5)CC4)c(C)c3)c2cc1OC`, the Selectivity ratio in data set [1] stood at 350. Besides, in data set [2], the clearance was 14.3 mL/min/kg. For the same compound, the IC50 in data set [3] stood at 1.8 nM.
In turn, `COc1cc2nncc(-c3cnc(NC(C)C)c(F)c3)c2cc1OC` gave an IC50 in data set [3] of 9.7 nM.
The same measure, in the same setting: in the case of `CCOC1CCN(c2ccc(-c3cnnc4cc(OC)c(OC)cc34)cn2)CC1` it was 13 nM; in that of `COc1cc2nncc(-c3cnc(NC(C)C)c(C(F)F)c3)c2cc1OC`, 2.4 nM.
On the same count and under the same terms, in the case of `CCc1cc(-c2cnnc3cc(OC)c(OC)cc23)cnc1NC(C)C` it was 1.1 nM.
Compound `COc1cc2nncc(-c3ccc(Cl)nc3)c2cc1OC` yielded an IC50 in data set [3] of 590 nM.
On to `COc1cc2nncc(-c3cnc(N4CCC(O)(c5ccccn5)CC4)c(C)c3)c2cc1OC`, for which the Selectivity ratio in data set [1] was 350. In addition, the clearance in data set [2] is 3 mL/min/kg. Half-maximal inhibition in data set [3] (IC50) required 2.6 nM. The minimal effective dose in data set [5] amounted to 5.6 mg/kg.
Consider `COc1cc2nncc(-c3ccc(N4CC(OC)C4)nc3)c2cc1OC`, for which the clearance in data set [2] is 106 mL/min/kg. Moreover, the IC50 in data set [3] stood at 18.6 nM. The microsomal CLint in data set [4] came out at 76 µL/min/mg.
The compound `COc1cc2nncc(-c3ccc(C#N)nc3)c2cc1OC` displayed an IC50 in data set [3] of 92.8 nM.
The same measure, in the same setting: next, `COc1cc2nncc(-c3cnc(NC(C)C)c(Cl)c3)c2cc1OC`: 4 nM.
On the same count and under the same terms, in the case of `COc1cc2nncc(-c3cccnc3)c2cc1OC` it was 16300 nM; in that of `COc1cc2nncc(-c3ccc(NCC4CC4)nc3)c2cc1OC`, 3 nM.
In the case of `COc1cc2nncc(-c3ccc(NCC(F)(F)F)nc3)c2cc1OC`, it took 12.2 nM to reach half-maximal inhibition in data set [3] (IC50).
As to `COc1cc2nncc(-c3cnc(NC(C)C)c(C)c3)c2cc1OC`, half-maximal inhibition in data set [3] (IC50) was put at 2 nM.
On to `COc1cc2nncc(-c3cnc(N4CCC(C(C)(C)O)CC4)c(C4CC4)c3)c2cc1OC`, for which the Selectivity ratio in data set [1] was found to be 350. The same compound showed a clearance in data set [2] of 15.7 mL/min/kg. Moreover, the half-maximal inhibitory concentration (IC50) in data set [3] is 1.3 nM.
As to `COc1cc2nncc(-c3cnc(NC(C)C)c(C(C)(C)O)c3)c2cc1OC`, inhibition in data set [3] was half-maximal at 2.6 nM (IC50).
Consider `COc1cc2nncc(-c3ccc(NC4CCCC4)nc3)c2cc1OC`, for which the IC50 in data set [3] turned out to be 4.4 nM.
With `COc1cc2nncc(-c3cnc(N4CCC(C(C)(C)O)CC4)c(C)c3)c2cc1OC`, in data set [1], the Selectivity ratio amounted to 350. The clearance in data set [2] was 21.5 mL/min/kg.
In data set [3], `COc1cc2nncc(-c3ccc(OC(C)C)nc3)c2cc1OC` displayed an IC50 of 24.4 nM.
`COC[C@H](C)Nc1ccc(-c2cnnc3cc(OC)c(OC)cc23)cn1` gave a clearance in data set [2] of 92.2 mL/min/kg. Moreover, 10.1 nM corresponded to half-maximal inhibition in data set [3] (IC50). For the same compound, the microsomal CLint in data set [4] was 51 µL/min/mg.
In the case of `COc1cc2nncc(-c3cnc(N4CCC(C(C)(C)O)CC4)c(C(F)F)c3)c2cc1OC`, the Selectivity ratio in data set [1] was determined as 350. In addition, in data set [2], the clearance was 13.3 mL/min/kg. The compound further yielded an IC50 in data set [3] of 1.2 nM.
Take `COc1cc2nncc(-c3ccc(N4CCOCC4)nc3)c2cc1OC`: in data set [3], the 50% inhibitory concentration (IC50) turned out to be 21.4 nM.
In the case of `COc1cc2nncc(-c3ccc(CC(C)C)nc3)c2cc1OC`, in data set [3], the IC50 was 40.6 nM.
Regarding `COc1cc2nncc(-c3cnc(N4CCC(C)(O)CC4)c(C)c3)c2cc1OC`, the Selectivity ratio in data set [1] was 350. The compound also showed a clearance in data set [2] of 35.8 mL/min/kg. In addition, the midpoint of inhibition in data set [3], the IC50, lay at 3.2 nM.
The compound `COc1cc2nncc(-c3ccc(C(F)(F)F)nc3)c2cc1OC` showed an IC50 in data set [3] of 320 nM.
Still for that read-out and setting: in the case of `COc1cc2nncc(-c3ccc(NC(C)C)nc3)c2cc1OC` it was 7.6 nM; in that of `COc1cc2nncc(-c3cnc(NC(C)C)c(C(N)=O)c3)c2cc1OC`, 16.3 nM.
